Reference: patent US6908908B2, “Biologically active 4H-benzo [1,4] oxazin-3-ones” (Ortho-McNeil Pharmaceutical, Inc., priority 2000, dated 2005)

Target: T1, PPAR γ (Homo sapiens, UniProt P37231)
T1 construct: Following the challenge of the preadipocytes, cells may be lysed with lysis buffer; endogenous in cells; host or cells: preadipocytes
T1 sequence (P37231 1-505): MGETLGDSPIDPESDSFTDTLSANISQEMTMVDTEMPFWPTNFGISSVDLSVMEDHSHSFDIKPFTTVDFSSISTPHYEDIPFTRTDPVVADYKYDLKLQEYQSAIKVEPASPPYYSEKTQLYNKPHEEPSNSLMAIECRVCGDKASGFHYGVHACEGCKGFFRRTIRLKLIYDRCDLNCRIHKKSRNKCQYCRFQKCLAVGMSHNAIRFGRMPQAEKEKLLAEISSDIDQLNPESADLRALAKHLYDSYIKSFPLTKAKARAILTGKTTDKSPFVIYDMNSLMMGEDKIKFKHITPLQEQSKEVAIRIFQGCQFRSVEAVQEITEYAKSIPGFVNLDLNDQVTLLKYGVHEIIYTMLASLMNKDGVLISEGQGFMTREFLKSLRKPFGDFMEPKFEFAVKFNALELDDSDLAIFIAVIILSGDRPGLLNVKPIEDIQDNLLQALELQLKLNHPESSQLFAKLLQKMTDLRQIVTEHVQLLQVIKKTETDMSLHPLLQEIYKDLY
Experiment: aP2 Assay for Agonist (induction of aP2 mRNA production); on Agonist Intrinsic Activity: test concentration or dose not given here
Type: cell-based
Details: Table 1; fold increase over vehicle in induction of aP2 mRNA production

Compound	Agonist Intrinsic Activity
O=C(O)Cc1ccccc1OCCC1Oc2ccccc2N(CCO)C1=O (stereo not drawn) [Compound 25]	3.5
CNC(=O)CCCN1C(=O)C(CCOc2ccccc2CC(=O)O)Oc2ccccc21 (stereo not drawn) [Compound 124]	4.00
CC(=O)NC(C)CCCCN1C(=O)C(CCOc2ccccc2CC(=O)O)Oc2ccccc21 (stereo not drawn) [Compound 85]	24
COC(=O)c1ccccc1OCCC1Oc2ccccc2N(Cc2cccc(C)c2)C1=O (stereo not drawn) [Compound 3]	0.6
COC(=O)Cc1cccc(OCCC2Oc3ccccc3N(Cc3cccc(C(F)(F)F)c3)C2=O)c1 (stereo not drawn) [Compound 33]	0.8
CCCOCCN1C(=O)C(CCOc2ccccc2CC(=O)O)Oc2ccccc21 (stereo not drawn) [Compound 117]	45.9
O=C(O)Cc1ccccc1OCCC1Oc2ccccc2N(CCCCCCCF)C1=O (stereo not drawn) [Compound 110]	64.5
COC(=O)c1ccccc1OCCC1Oc2ccccc2N(Cc2ccc(C)cc2)C1=O (stereo not drawn) [Compound 1]	0.9
COC(=O)Cc1ccccc1OCCC1Oc2ccccc2N(Cc2cccc(C(F)(F)F)c2)C1=O (stereo not drawn) [Compound 27]	0.8
O=C(O)Cc1ccccc1OCCC1Oc2ccccc2N(Cc2cc(C(F)(F)F)cc(C(F)(F)F)c2)C1=O (stereo not drawn) [Compound 40]	6.7
O=C(O)CCc1ccccc1OCCC1Oc2ccccc2N(Cc2cc(C(F)(F)F)cc(C(F)(F)F)c2)C1=O (stereo not drawn) [Compound 42]	2.1
CCCSCCN1C(=O)C(CCOc2ccccc2CC(=O)O)Oc2ccccc21 (stereo not drawn) [Compound 116]	4.0
CC(C)(CCCCN1C(=O)C(CCOc2ccccc2CC(=O)O)Oc2ccccc21)C(=O)O (stereo not drawn) [Compound 102]	4.1
O=C(O)Cc1ccccc1OCCC1Oc2ccccc2N(c2ccc(Cl)c(Cl)c2)C1=O (stereo not drawn) [Compound 119]	22.8
O=C([O-])c1ccccc1OCCC1Oc2ccccc2N(Cc2cccc(C(F)(F)F)c2)C1=O.[Na+] (stereo not drawn) [Compound 26, Benzoic acid, 2-[2-[3,4-dihydro-3-oxo-4-[[3-(trifluoromethyl)phenyl]methyl]-2H-1,4-benzoxazin-2-yl]ethoxy]-, monosodium salt]	3.1
CC(F)(F)CCCCCN1C(=O)C(CCOc2ccccc2CC(=O)O)Oc2ccccc21 (stereo not drawn) [Compound 106]	40.8
CCCCCCCCCCN1C(=O)C(CCOc2ccccc2CC(=O)O)Oc2ccccc21 (stereo not drawn) [Compound 57]	9.9
COC(=O)CCCc1ccccc1OCCC1Oc2ccccc2N(Cc2cccc(C(F)(F)F)c2)C1=O (stereo not drawn) [Compound 31]	0.9
CCCCCCCCCN1C(=O)C(CCOc2ccccc2CC(=O)O)Oc2ccccc21 (stereo not drawn) [Compound 55]	7.1
O=C(O)Cc1ccccc1OCCC1Oc2ccccc2N(CCCCCO)C1=O (stereo not drawn) [Compound 64]	3.6

Compound	Agonist Intrinsic Activity
CC(=O)NCCCCCCN1C(=O)C(CCOc2ccccc2CC(=O)O)Oc2ccccc21 (stereo not drawn) [Compound 125]	10.78
O=C(O)Cc1ccccc1OCCC1Oc2ccccc2N(CC(=O)O)C1=O (stereo not drawn) [Compound 46]	2
CCCOCCN1C(=O)C(CCOc2ccccc2C(F)(F)F)Oc2ccccc21 (stereo not drawn) [Compound 20]	1.2
O=C([O-])CCCc1ccccc1OCCC1Oc2ccccc2N(Cc2cccc(C(F)(F)F)c2)C1=O.[Na+] (stereo not drawn) [Compound 32]	8.2
CC(CCN1C(=O)C(CCOc2ccccc2CC(=O)O)Oc2ccccc21)CC(C)(C)C (stereo not drawn) [Compound 76]	28.7
COC(=O)Cc1ccccc1OCCC1Oc2ccccc2N(CCOC(C)=O)C1=O (stereo not drawn) [Compound 24]	1.3
O=C(O)Cc1ccccc1OCCC1Oc2ccccc2N(CCCCCCF)C1=O (single isomer, unassigned) [Compound 93]	53.1
CCCSCCN1C(=O)C(CCOc2ccccc2C(F)(F)F)Oc2ccccc21 (stereo not drawn) [Compound 21]	1.9
COC(=O)Cc1ccccc1OCCC1Oc2ccccc2N(CC(=O)OC)C1=O (stereo not drawn) [Compound 22]	7.2
O=C([O-])Cc1cccc(OCCC2Oc3ccccc3N(Cc3cccc(C(F)(F)F)c3)C2=O)c1.[Na+] (stereo not drawn) [Compound 34]	10.4
O=C(O)Cc1ccccc1OCCC1Oc2ccccc2N(CC(=O)O)C1=O (stereo not drawn) [Compound 23]	0.8
CS(=O)(=O)NCCCCCCN1C(=O)C(CCOc2ccccc2CC(=O)O)Oc2ccccc21 (stereo not drawn) [Compound 126, Benzeneacetic acid, 2-[2-[3,4-dihydro-3-oxo-4-(6-methanesulfonamidohexyl)-2H-1,4-benzoxazin-2-yl]ethoxy]-]	12.96
O=C([O-])CCc1cccc(OCCC2Oc3ccccc3N(Cc3cccc(C(F)(F)F)c3)C2=O)c1.[Na+] (stereo not drawn) [Compound 36]	11.1
CC(C)CCCCN1C(=O)C(CCOc2ccccc2CC(=O)O)Oc2ccccc21 (stereo not drawn) [Compound 72]	32
COC(=O)Cc1ccccc1OCCC1Oc2ccccc2N(CCCCC(C)=O)C1=O (stereo not drawn) [Compound 77, Benzeneacetic acid, 2-[2-[3,4-dihydro-3-oxo-4-(5-oxohexyl)-2H-1,4-benzoxazin-2-yl]ethoxy]-, methyl ester]	9.9
O=C(O)Cc1ccccc1OCCC1Oc2ccccc2N(CCCCCCF)C1=O (single isomer, unassigned) [Compound 92]	44.8
CCCCCCCCCCN1C(=O)C(CCOc2ccccc2CC(=O)OC)Oc2ccccc21 (stereo not drawn) [Compound 56]	1.0
O=C([O-])Cc1ccccc1OCCC1Oc2ccccc2N(Cc2cccc(C(F)(F)F)c2)C1=O.[Na+] (stereo not drawn) [Compound 28]	21.5
CC(F)(F)CCCCN1C(=O)C(CCOc2ccccc2CC(=O)O)Oc2ccccc21 (single isomer, unassigned) [Compound 89]	42.0
CC(C)(CN)CCCCN1C(=O)C(CCOc2ccccc2CC(=O)O)Oc2ccccc21 (stereo not drawn) [Compound 96]	27.5

Compound	Agonist Intrinsic Activity
CCOCCCN1C(=O)C(CCOc2ccccc2C(F)(F)F)Oc2ccccc21 (stereo not drawn) [Compound 19]	1.4
COC(=O)Cc1ccccc1OCCC1Oc2ccccc2N(Cc2ccc(C(F)(F)F)cc2)C1=O (stereo not drawn) [Compound 37]	1.2
COC(=O)CCc1ccccc1OCCC1Oc2ccccc2N(Cc2cccc(C(F)(F)F)c2)C1=O (stereo not drawn) [Compound 29]	0.8
O=C(O)Cc1ccccc1OCCC1Oc2ccccc2N(CCCCCF)C1=O (stereo not drawn) [Compound 113]	29.1
CCCNC(=O)CN1C(=O)C(CCOc2ccccc2CC(=O)O)Oc2ccccc21 (stereo not drawn) [Compound 122]	40.83
COC(=O)Cc1ccccc1OCCC1Oc2ccccc2N(CC(=O)OC)C1=O (stereo not drawn) [Compound 45]	7.2
CCCCCCCCCCN1C(=O)C(CCOc2ccccc2C(F)(F)F)Oc2ccccc21 (stereo not drawn) [Compound 17]	1.1
CCCCCCN1C(=O)C(CCOc2ccccc2C(=O)C(=O)O)Oc2ccccc21 (stereo not drawn) [Compound 13, Benzeneacetic acid, 2-[2-(4-hexyl-3,4-dihydro-3-oxo-2H-1,4-benzoxazin-2-yl)ethoxy]-a-oxo-]	2.6
O=C([O-])CCc1ccccc1OCCC1Oc2ccccc2N(Cc2cccc(C(F)(F)F)c2)C1=O.[Na+] (stereo not drawn) [Compound 30]	5.6
O=C(O)Cc1ccccc1OCCC1Oc2ccccc2N(CCO)C1=O (stereo not drawn) [Compound 48]	8
CC(=O)CCCCCN1C(=O)C(CCOc2ccccc2CC(=O)O)Oc2ccccc21 (stereo not drawn) [Compound 108]	37.3
CC(C)(O)CCCCN1C(=O)C(CCOc2ccccc2CC(=O)O)Oc2ccccc21 (stereo not drawn) [Compound 84]	3.5
COC(=O)Cc1ccccc1OCCC1Oc2ccccc2N(c2ccc(Cl)c(Cl)c2)C1=O (stereo not drawn) [Compound 118]	0.9
CC(O)CCCCN1C(=O)C(CCOc2ccccc2CC(=O)O)Oc2ccccc21 (stereo not drawn) [Compound 82, Benzeneacetic acid, 2-[2-[3,4-dihydro-4-(5-hydroxyhexyl)-3-oxo-2H-1,4-benzoxazin-2-yl]ethoxy]-]	4.9
NC(=O)CCCCCN1C(=O)C(CCOc2ccccc2CC(=O)O)Oc2ccccc21 (stereo not drawn) [Compound 98, Benzeneacetic acid, 2-[2-[4-(6-amino-6-oxohexyl)-3,4-dihydro-3-oxo-2H-1,4-benzoxazin-2-yl]ethoxy]-]	28
CC(C)(C)CCCCN1C(=O)C(CCOc2ccccc2CC(=O)O)Oc2ccccc21 (stereo not drawn) [Compound 74]	22.0
CCCCCCCN1C(=O)C(CCOc2ccccc2CC(=O)OC)Oc2ccccc21 (stereo not drawn) [Compound 50]	6.2
CCCCCCN1C(=O)C(CCOc2ccccc2CP(=O)(O)O)Oc2ccccc21 (stereo not drawn) [Compound 15, Phosphonic acid, [[2-[2-(4-hexyl-3,4-dihydro-3-oxo-2H-1,4-benzoxazin-2-yl)ethoxy]phenyl]methyl]-]	7.2

Same assay, conditions: Table 3 (stereoisomers); fold increase over vehicle in induction of aP2 mRNA production

Compound	PPAR γ Agonist Intrinsic Activity
CCCCCCN1C(=O)[C@](C)(CCOc2ccccc2CC(=O)O)Oc2ccccc21 [Compound 130]	91.3
CCCCCCN1C(=O)C(CCOc2ccc(OC(C)(C)C(=O)O)cc2)Oc2ccccc21 (stereo not drawn) [Compound 129]	12.62
